#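 Compound exposure: 48 hours, 5 concentrations, 96-well plates. Abbreviation: GI50, concentration required for 50% inhibition of growth.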 Active and inactive are the calls of the source. Rule as the data show it: active = GI50 up to about 1.1 µM and inactive = higher.
# Assays:
# Test in all cases: NCI anticancer screen, dose series, 48 h
# NCI-H23 = system: NCI-H23
# Hs-578T = system: Hs-578T
# NCI-H460 = system: NCI-H460
# Malme-3M = system: Malme-3M
# ACHN = system: ACHN
# HCT-15 = system: HCT-15
# KM12 = system: KM12
# OVCAR-8 = system: OVCAR-8
# MDA-MB-435 = system: MDA-MB-435
# A498 = system: A498
# M14 = system: M14
# PC-3 = system: PC-3
# SF-539 = system: SF-539
# SNB-19 = system: SNB-19
# OVCAR-5 = system: OVCAR-5
# HOP-92 = system: HOP-92
# SF-295 = system: SF-295
# SR = system: SR
# 786-0 = system: 786-0
# SF-268 = system: SF-268
# SK-OV-3 = system: SK-OV-3
# LOX IMVI = system: LOX IMVI
# SW-620 = system: SW-620
# DU-145 = system: DU-145
# HT-29 = system: HT-29
# TK-10 = system: TK-10
# MDA-N = system: MDA-N
# RXF 393 = system: RXF 393
# SK-MEL-28 = system: SK-MEL-28
# SK-MEL-2 = system: SK-MEL-2
# HL-60 = system: HL-60
# HCT-116 = system: HCT-116
# SK-MEL-5 = system: SK-MEL-5
# NCI/ADR-RES = system: NCI/ADR-RES
# RPMI-8226 = system: RPMI-8226
# SN12C = system: SN12C
# T47D = system: T47D
# OVCAR-4 = system: OVCAR-4
# MCF7 = system: MCF7
# CCRF-CEM = system: CCRF-CEM
# HOP-62 = system: HOP-62
# NCI-H522 = system: NCI-H522
# COLO 205 = system: COLO 205
# NCI-H226 = system: NCI-H226
# IGROV-1 = system: IGROV-1
# UACC-62 = system: UACC-62
# A549 = system: A549
# BT-549 = system: BT-549
# U-251 = system: U-251
# OVCAR-3 = system: OVCAR-3
# UACC-257 = system: UACC-257
# EKVX = system: EKVX
# SNB-75 = system: SNB-75
# MDA-MB-231 = system: MDA-MB-231
# K562 = system: K562
# MOLT-4 = system: MOLT-4
# UO-31 = system: UO-31
# HCC 2998 = system: HCC 2998
# CAKI-1 = system: CAKI-1
structure (smiles),measurement,setting,value
O=[N+]([O-])c1ccc2nc(O)n[n+]([O-])c2c1,GI50,NCI-H23,> 100 µM (inactive)
same,GI50,Hs-578T,> 100 µM (inactive)
same,GI50,NCI-H460,> 100 µM (inactive)
same,GI50,Malme-3M,> 100 µM (inactive)
same,GI50,ACHN,> 100 µM (inactive)
same,GI50,HCT-15,> 100 µM
same,GI50,KM12,> 100 µM (inactive)
same,GI50,OVCAR-8,> 100 µM (inactive)
same,GI50,MDA-MB-435,> 100 µM (inactive)
same,GI50,A498,> 100 µM (inactive)
same,GI50,M14,> 100 µM (inactive)
same,GI50,PC-3,> 100 µM (inactive)
same,GI50,SF-539,> 100 µM (inactive)
same,GI50,SNB-19,> 100 µM (inactive)
same,GI50,OVCAR-5,> 100 µM (inactive)
same,GI50,HOP-92,> 100 µM (inactive)
same,GI50,SF-295,> 100 µM (inactive)
same,GI50,SR,> 20.6 µM (inactive)
same,GI50,786-0,> 100 µM (inactive)
same,GI50,SF-268,> 100 µM (inactive)
same,GI50,SK-OV-3,> 100 µM (inactive)
same,GI50,LOX IMVI,> 100 µM (inactive)
same,GI50,SW-620,> 100 µM (inactive)
same,GI50,DU-145,> 100 µM (inactive)
same,GI50,HT-29,> 100 µM (inactive)
same,GI50,TK-10,> 100 µM (inactive)
same,GI50,MDA-N,> 100 µM (inactive)
same,GI50,RXF 393,> 100 µM (inactive)
same,GI50,SK-MEL-28,> 100 µM (inactive)
same,GI50,SK-MEL-2,> 100 µM (inactive)
same,GI50,HL-60,> 100 µM (inactive)
same,GI50,HCT-116,> 100 µM (inactive)
same,GI50,SK-MEL-5,> 100 µM (inactive)
same,GI50,NCI/ADR-RES,> 100 µM (inactive)
same,GI50,RPMI-8226,97.9 µM (inactive)
same,GI50,SN12C,> 100 µM (inactive)
same,GI50,T47D,> 100 µM (inactive)
same,GI50,OVCAR-4,> 100 µM (inactive)
same,GI50,MCF7,> 100 µM (inactive)
same,GI50,CCRF-CEM,> 100 µM (inactive)
same,GI50,HOP-62,> 100 µM (inactive)
same,GI50,NCI-H522,> 100 µM (inactive)
same,GI50,COLO 205,> 100 µM (inactive)
same,GI50,NCI-H226,> 100 µM (inactive)
same,GI50,IGROV-1,> 100 µM (inactive)
same,GI50,UACC-62,> 100 µM (inactive)
same,GI50,A549,> 100 µM (inactive)
same,GI50,BT-549,> 100 µM (inactive)
same,GI50,U-251,> 100 µM (inactive)
same,GI50,OVCAR-3,> 100 µM (inactive)
same,GI50,UACC-257,> 100 µM (inactive)
same,GI50,EKVX,> 100 µM (inactive)
same,GI50,SNB-75,> 100 µM (inactive)
same,GI50,MDA-MB-231,> 100 µM (inactive)
same,GI50,K562,> 100 µM (inactive)
same,GI50,MOLT-4,> 100 µM (inactive)
same,GI50,UO-31,> 100 µM (inactive)
same,GI50,HCC 2998,> 100 µM (inactive)
CC[C@]12C=CCN3CC[C@@]4(c5cc(N=O)c(OC)cc5N(C)[C@H]4[C@@](O)(C(=O)NC(Cc4c[nH]c5ccccc45)C(=O)OC)[C@@H]1O)[C@@H]32 (stereo partly specified),GI50,NCI-H23,17.7 µM (inactive)
same,GI50,Hs-578T,22.4 µM (inactive)
same,GI50,NCI-H460,19.1 µM (inactive)
same,GI50,Malme-3M,18.6 µM (inactive)
same,GI50,ACHN,18.9 µM (inactive)
same,GI50,HCT-15,20.3 µM
same,GI50,KM12,12.5 µM (inactive)
same,GI50,OVCAR-8,17.5 µM (inactive)
same,GI50,CAKI-1,17.9 µM (inactive)
same,GI50,MDA-MB-435,17.1 µM (inactive)
same,GI50,A498,32.4 µM (inactive)
same,GI50,M14,19 µM (inactive)
same,GI50,PC-3,11.5 µM (inactive)
same,GI50,SF-539,16.6 µM (inactive)
same,GI50,SNB-19,19.9 µM (inactive)
same,GI50,OVCAR-5,19.5 µM (inactive)
same,GI50,HOP-92,12.3 µM (inactive)
same,GI50,SF-295,17.1 µM (inactive)
same,GI50,SR,1.22 µM (inactive)
same,GI50,786-0,30 µM (inactive)
same,GI50,SF-268,24.2 µM (inactive)
same,GI50,SK-OV-3,20.2 µM (inactive)
same,GI50,LOX IMVI,16.7 µM (inactive)
same,GI50,SW-620,6.93 µM (inactive)
same,GI50,DU-145,17.2 µM (inactive)
same,GI50,HT-29,14.1 µM (inactive)
same,GI50,TK-10,17.9 µM (inactive)
same,GI50,MDA-N,20.3 µM (inactive)
same,GI50,RXF 393,12.6 µM (inactive)
same,GI50,SK-MEL-28,31.3 µM (inactive)
same,GI50,SK-MEL-2,15.3 µM (inactive)
same,GI50,HL-60,2.87 µM (inactive)
same,GI50,HCT-116,12.9 µM (inactive)
same,GI50,SK-MEL-5,14.8 µM (inactive)
same,GI50,NCI/ADR-RES,> 100 µM (inactive)
same,GI50,SN12C,26.4 µM (inactive)
same,GI50,T47D,6.93 µM (inactive)
same,GI50,OVCAR-4,15.6 µM (inactive)
same,GI50,MCF7,15.3 µM (inactive)
same,GI50,CCRF-CEM,3.27 µM (inactive)
same,GI50,HOP-62,18.2 µM (inactive)
same,GI50,NCI-H522,2.64 µM (inactive)
same,GI50,COLO 205,15.4 µM (inactive)
same,GI50,NCI-H226,24.5 µM (inactive)
same,GI50,IGROV-1,17.7 µM (inactive)
same,GI50,UACC-62,16 µM (inactive)
same,GI50,A549,29.4 µM (inactive)
same,GI50,BT-549,14.9 µM (inactive)
same,GI50,U-251,7.33 µM (inactive)
same,GI50,OVCAR-3,14.4 µM (inactive)
same,GI50,UACC-257,15.1 µM (inactive)
same,GI50,EKVX,20.9 µM (inactive)
same,GI50,SNB-75,15 µM (inactive)
same,GI50,MDA-MB-231,18.3 µM (inactive)
same,GI50,K562,3.92 µM (inactive)
same,GI50,MOLT-4,1.46 µM (inactive)
same,GI50,UO-31,23.1 µM (inactive)
same,GI50,HCC 2998,15.6 µM (inactive)

# Source: ChEMBL document CHEMBL1201862, “PubChem BioAssay data set” (2004)
